Patent publication US7683168B2, “Compositions of novel opioid compounds and method of use thereof” (priority 2005, dated 2010)

Tests used:
human delta receptor = target: T1, human delta receptor (Homo sapiens, UniProt P41143); test: radioligand binding, human delta receptor, HEK-293 cell membranes; settings: cell not marked (rat), species not given, read-out: δ
T1 construct: purchased Perkin Elmer, Boston, Mass; 6110549; host or cells: HEK-293 cells

human mu opioid receptor = target: T2, human mu opioid receptor (Homo sapiens, UniProt P35372); test: radioligand binding, human mu opioid receptor, CHO cell membranes; settings: species not given, read-out: μ
T2 construct: purchased Perkin Elmer, Boston, Mass; 6110535; host or cells: CHO cells
T2 sequence (P35372 whole entry): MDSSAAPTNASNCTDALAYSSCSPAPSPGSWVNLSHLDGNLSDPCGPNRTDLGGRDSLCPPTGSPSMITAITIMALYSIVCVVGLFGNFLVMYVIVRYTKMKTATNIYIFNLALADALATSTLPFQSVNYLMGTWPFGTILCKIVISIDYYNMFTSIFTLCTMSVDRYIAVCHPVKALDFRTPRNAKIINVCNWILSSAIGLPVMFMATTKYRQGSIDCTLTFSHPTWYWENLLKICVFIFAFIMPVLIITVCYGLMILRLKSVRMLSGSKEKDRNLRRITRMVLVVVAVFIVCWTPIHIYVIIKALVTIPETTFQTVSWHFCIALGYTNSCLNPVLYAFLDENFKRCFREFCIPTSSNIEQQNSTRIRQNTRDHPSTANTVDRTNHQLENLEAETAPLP

[1] = tested on: seizure-like convulsions in mice; test: mouse seizure-like convulsions; format: in vivo
Description: Mouse Seizure-Like Convulsions and antinociception: The central (CNS) effects of the compound were tested with central delta receptor mediated seizure-like convulsions and central mu opioid receptor mediated antinociceptive effects in mice. Male CD-1 mice (Charles River, Raleigh, N.C.) weighing 20-25 g were used to determine the seizure-like convulsion and antinociception activities for compounds.
They were then observed for seizure-like convulsions for one hour following the treatment. A seizure-like event was recorded if a mouse had uncontrollable clonic (or tonic/clonic) muscle movements that encompassed its entire body, usually followed by a brief cataleptic period. Catalepsy was determined by placing the animal's front paws on a horizontal bar held 2-3 inches from the cage floor. Cataleptic animals made no attempt to remove their paws.

mouse vas deferens = test: electrically stimulated mouse vas deferens (MVD) ED50; format: cell-based; settings: ED50, inhibition of electrically induced contractions

T1 sequence (P41143 whole entry): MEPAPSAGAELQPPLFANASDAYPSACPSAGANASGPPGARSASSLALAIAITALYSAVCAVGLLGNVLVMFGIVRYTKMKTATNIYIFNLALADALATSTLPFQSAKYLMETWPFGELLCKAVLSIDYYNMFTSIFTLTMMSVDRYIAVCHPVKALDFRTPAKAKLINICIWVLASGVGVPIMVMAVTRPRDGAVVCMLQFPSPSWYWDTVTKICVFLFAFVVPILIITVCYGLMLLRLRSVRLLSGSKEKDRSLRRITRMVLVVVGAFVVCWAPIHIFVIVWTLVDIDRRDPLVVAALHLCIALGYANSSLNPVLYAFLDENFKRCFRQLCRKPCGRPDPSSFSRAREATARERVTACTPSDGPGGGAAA

`CCOC(=O)CN1CCCN(C(=O)c2cccc(C(c3cccc(O)c3)N3C[C@@H](C)N(CC4CC4)C[C@@H]3C)c2)CC1` (stereo partly drawn) showed a Ki (human delta receptor) of 1.9 nM, a Ki (human mu opioid receptor) of 3.9 nM and a Seiz. ([1]; 20 mg/kg IV) of 0% 20 mg/kg IV. For the same molecule, the EC50 (mouse vas deferens) was 38.9 nM.
Molecule `C=CCN1C[C@H](C)N(C(c2cccc(O)c2)c2cccc(C(=O)N3CCCN(Cc4cccc(C(=O)O)c4)CC3)c2)C[C@H]1C` (stereo partly drawn) has a Ki (human mu opioid receptor) of 5.5 nM, a Seiz. ([1]; 10 mg/kg IV) of 0% 10 mg/kg IV and an EC50 (mouse vas deferens) of 6.23 nM.
`C=CCN1C[C@H](C)N(C(c2cccc(O)c2)c2cccc(C(=O)N3CCCN(Cc4ccccc4C(=O)O)CC3)c2)C[C@H]1C` (stereo partly drawn) showed a Ki (human mu opioid receptor) of 1.4 nM, a Seiz. ([1]; 10 mg/kg IV) of 40% 10 mg/kg IV and an EC50 (mouse vas deferens) of 2.2 nM.
For `C[C@@H]1CN([C@@H](c2cccc(O)c2)c2cccc(C(=O)N3CCN(CC(=O)O)CC3)c2)[C@@H](C)CN1Cc1cccc(F)c1` [Example 67, (4-{3-[(R)-[(2S,5R)-4-(3-Fluoro-benzyl)-2,5-dimethyl-piperazin-1-yl]-(3-hydroxy-phenyl)-methyl]-benzoyl}-piperazin-1-yl)-acetic acid], the Ki (human mu opioid receptor) was 10.7 nM, the Seiz. ([1]; 10 mg/kg IV) was 0% 10 mg/kg IV and the EC50 (mouse vas deferens) was 2.82 nM.
For `CCOC(=O)CCCCN1CCN(C(=O)c2cccc([C@H](c3cccc(O)c3)N3C[C@@H](C)N(CC4CC4)C[C@@H]3C)c2)CC1` [Example 89, 5-(4-{3-[(R)-((2S,5R)-4-Cyclopropylmethyl-2,5-dimethyl-piperazin-1-yl)-(3-hydroxy-phenyl)-methyl]-benzoyl}-piperazin-1-yl)-pentanoic acid ethyl ester], the Ki (human delta receptor) was 15.4 nM, the Ki (human mu opioid receptor) was 23.2 nM and the EC50 (mouse vas deferens) was 92.7 nM.
In the case of `C[C@@H]1CN([C@@H](c2cccc(O)c2)c2cccc(C(=O)N3CCN(CCCCC(=O)O)CC3)c2)[C@@H](C)CN1CC1CC1` [Example 90, 5-(4-{3-[(R)-((2S,5R)-4-Cyclopropylmethyl-2,5-dimethyl-piperazin-1-yl)-(3-hydroxy-phenyl)-methyl]-benzoyl}-piperazin-1-yl)-pentanoic acid], the Ki (human delta receptor) is reported as 32.5 nM, the Ki (human mu opioid receptor) is reported as 409 nM and the EC50 (mouse vas deferens) is reported as 46.2 nM.
For `C=CCN1C[C@H](C)N([C@@H](c2cccc(O)c2)c2cccc(C(=O)N3CCN(CCCCCC(=O)OCC)CC3)c2)C[C@H]1C` [Example 93, 6-(4-{3-[(R)-((2S,5R)-4-Allyl-2,5-dimethyl-piperazin-1-yl)-(3-hydroxy-phenyl)-methyl]-benzoyl}-piperazin-1-yl)-hexanoic acid ethyl ester], the Ki (human delta receptor) was 5.4 nM, the Ki (human mu opioid receptor) was 30.5 nM and the EC50 (mouse vas deferens) was 58.8 nM.
With `CCOC(=O)CCCCCN1CCN(C(=O)c2cccc([C@H](c3cccc(O)c3)N3C[C@@H](C)N(Cc4cccc(F)c4)C[C@@H]3C)c2)CC1` [Example 98, 6-(4-{3-[(R)-((2S,5R)-4-(3-Fluorobenzyl)-2,5-dimethyl-piperazin-1-yl)-(3-hydroxy-phenyl)-methyl]-benzoyl}-piperazin-1-yl)-hexanoic acid ethyl ester] the Ki (human delta receptor) was 7.1 nM, the Ki (human mu opioid receptor) was 8.5 nM and the EC50 (mouse vas deferens) was 102 nM.
Work on `C[C@@H]1CN([C@@H](c2cccc(O)c2)c2cccc(C(=O)N3CCN(CCCCCC(=O)O)CC3)c2)[C@@H](C)CN1Cc1cccc(F)c1` [Example 99, 6-(4-{3-[(R)-((2S,5R)-4-(3-Fluorobenzyl)-2,5-dimethyl-piperazin-1-yl)-(3-hydroxy-phenyl)-methyl]-benzoyl}-piperazin-1-yl)-hexanoic acid] yielded a Ki (human delta receptor) of 15.7 nM, a Seiz. ([1]; 10 mg/kg IV) of 0% 10 mg/kg IV and an EC50 (mouse vas deferens) of 10.6 nM.
For `C[C@@H]1CN([C@@H](c2cccc(O)c2)c2cccc(C(=O)N3CCN(Cc4ccc(C(=O)O)cc4)CC3)c2)[C@@H](C)CN1CC1CC1` [Example 103, 4-(4-{3-[(R)-((2S,5R)-4-Cyclopropylmethyl-2,5-dimethyl-piperazin-1-yl)-(3-hydroxy-phenyl)-methyl]-benzoyl}-piperazin-1-ylmethyl)-benzoic acid], the Ki (human mu opioid receptor) was 84.7 nM, the Seiz. ([1]; 60 mg/kg PO) was 0% 60 mg/kg PO and the EC50 (mouse vas deferens) was 187 nM.
For `C[C@@H]1CN([C@@H](c2cccc(O)c2)c2cccc(C(=O)N3CCN(Cc4ccc(C(=O)O)cc4)CC3)c2)[C@@H](C)CN1Cc1cccc(O)c1` [Example 104, 4-(4-{3-[(R)-[(2S,5R)-4-(3-Hydroxy-benzyl)-2,5-dimethyl-piperazin-1-yl]-(3-hydroxy-phenyl)-methyl]-benzoyl}-piperazin-1-ylmethyl)-benzoic acid], the Ki (human delta receptor) was 0.99 nM, the Ki (human mu opioid receptor) was 19.4 nM and the EC50 (mouse vas deferens) was 2.06 nM.
`COCCN1C[C@H](C)N([C@@H](c2cccc(O)c2)c2cccc(C(=O)N3CCN(Cc4ccc(C(=O)O)cc4)CC3)c2)C[C@H]1C` [Example 105, 4-[4-(3-{(R)-(3-Hydroxy-phenyl)-[(2S,5R)-4-(2-methoxy-ethyl)-2,5-dimethyl-piperazin-1-yl]-methyl}-benzoyl)-piperazin-1-ylmethyl]-benzoic acid] was tested, and the Ki (human delta receptor) was 32 nM, the Ki (human mu opioid receptor) was 88.6 nM and the EC50 (mouse vas deferens) was 30.6 nM.
For `C=CCN1C[C@H](C)N([C@@H](c2cccc(O)c2)c2cccc(C(=O)N3CCN(Cc4cccc5c4ccn5CC(=O)O)CC3)c2)C[C@H]1C` [Example 107, [4-(4-{3-[(R)-((2S,5R)-4-Allyl-2,5-dimethyl-piperazin-1-yl)-(3-hydroxy-phenyl)-methyl]-benzoyl}-piperazin-1-ylmethyl)-indol-1-yl]-acetic acid], the Ki (human delta receptor) was 0.95 nM, the Ki (human mu opioid receptor) was 6.5 nM and the EC50 (mouse vas deferens) was 3.97 nM.
Molecule `C=CCN1C[C@H](C)N([C@@H](c2cccc(O)c2)c2cccc(C(=O)N3CCN(CCCCCCC(=O)O)CC3)c2)C[C@H]1C` [Example 109, 7-(4-{3-[(R)-((2S,5R)-4-Allyl-2,5-dimethyl-piperazin-1-yl)-(3-hydroxy-phenyl)-methyl]-benzoyl}-piperazin-1-yl)-heptanoic acid] has a Ki (human delta receptor) of 1.9 nM, a Seiz. ([1]; 10 mg/kg IV) of 0% 10 mg/kg IV and an EC50 (mouse vas deferens) of 7.48 nM.
`CCOC(=O)CCCCCCN1CCN(C(=O)c2cccc([C@H](c3cccc(O)c3)N3C[C@@H](C)N(Cc4ccccc4)C[C@@H]3C)c2)CC1` [Example 110, 7-(4-{3-[(R)-((2S,5R)-4-Benzyl-2,5-dimethyl-piperazin-1-yl)-(3-hydroxy-phenyl)-methyl]-benzoyl}-piperazin-1-yl)-heptanoic acid ethyl ester] showed a Seiz. ([1]; 10 mg/kg IV) of 70% 10 mg/kg IV and an EC50 (mouse vas deferens) of 18.8 nM.
`C=CCN1C[C@H](C)N([C@@H](c2cccc(O)c2)c2cccc(C(=O)N3CCC[C@H]3C(=O)O)c2)C[C@H]1C` [Example 144, 1-{3-[(R)-((2S,5R)-4-Allyl-2,5-dimethyl-piperazin-1-yl)-(3-hydroxy-phenyl)-methyl]-benzoyl}-pyrrolidine-2-carboxylic acid] was tested, and the Ki (human delta receptor) was 0.62 nM, the Seiz. ([1]; 10 mg/kg IV) was 0% 10 mg/kg IV and the EC50 (mouse vas deferens) was 1.15 nM.
`C=CCN1C[C@H](C)N([C@@H](c2cccc(O)c2)c2cccc(C(=O)N(C)CC(=O)OCC)c2)C[C@H]1C` [Example 151, ({3-[(R)-((2S,5R)-4-Allyl-2,5-dimethyl-piperazin-1-yl)-(3-hydroxy-phenyl)-methyl]-benzoyl}-methyl-amino)-acetic acid ethyl ester] was tested, and the Ki (human mu opioid receptor) was 0.5 nM, the Seiz. ([1]; 10 mg/kg IV) was 100% 10 mg/kg IV and the EC50 (mouse vas deferens) was 1.6 nM.
With `C=CCN1C[C@H](C)N([C@@H](c2cccc(O)c2)c2cccc(C(=O)N(C)CC(=O)O)c2)C[C@H]1C` [Example 152, ({3-[(R)-((2S,5R)-4-Allyl-2,5-dimethyl-piperazin-1-yl)-(3-hydroxy-phenyl)-methyl]-benzoyl}-methyl-amino)-acetic acid] the Ki (human delta receptor) was 0.7 nM, the Seiz. ([1]; 10 mg/kg IV) was 0% 10 mg/kg IV and the EC50 (mouse vas deferens) was 2.36 nM.
